Test results: PubChem BioAssay (NCI)
Several values for one entry are separate records, joined by “and”; a condition that tells them apart may be missing. Equal entries are not always repeated.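 Method: 48-hour compound exposure of cells in 96-well plates, five concentrations, linear interpolation of endpoints. The concentration for 50% growth inhibition is given as GI50. Definition used: TGI = concentration required for complete inhibition of growth.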

Key:
Test in all cases: NCI-60 cell line screen, 48 h
A498 renal = tested on: A498 renal
HCT-116 colon = tested on: HCT-116 colon
786-0 renal = tested on: 786-0 renal
PC-3 prostate = tested on: PC-3 prostate
CAKI-1 renal = tested on: CAKI-1 renal
OVCAR-4 ovarian = tested on: OVCAR-4 ovarian
NCI-H23 lung = tested on: NCI-H23 lung
OVCAR-3 ovarian = tested on: OVCAR-3 ovarian
SF-268 CNS = tested on: SF-268 CNS
RPMI-8226 leukemia = tested on: RPMI-8226 leukemia

Work on `O=C1c2c(c3c4ccccc4n(CCCCCCN4CCOCC4)c3c3[nH]c4ccccc4c23)C(=O)N1O` yielded a GI50 (A498 renal) of 9.15 µM, a TGI (A498 renal) of 25.4 µM and a GI50 (HCT-116 colon) of 1.85 µM. It also gave a TGI (HCT-116 colon) of 3.86 µM, a GI50 (786-0 renal) of 1.96 µM and a TGI (786-0 renal) of 5.43 µM. The GI50 (PC-3 prostate) was 12.1 µM, the TGI (PC-3 prostate) was greater than 57 µM and the GI50 (CAKI-1 renal) was 8.98 µM. For the same compound, the TGI (CAKI-1 renal) was 28.9 µM, the GI50 (OVCAR-4 ovarian) was 4.44 µM and the TGI (OVCAR-4 ovarian) was 20.7 µM. For the same compound, the GI50 (NCI-H23 lung) was 15.8 µM, the TGI (NCI-H23 lung) was 45.9 µM and the GI50 (OVCAR-3 ovarian) was 16.3 µM. It also gave a TGI (OVCAR-3 ovarian) of 33.8 µM, a GI50 (SF-268 CNS) of 15.8 µM and a TGI (SF-268 CNS) of 39.4 µM. For the same compound, the GI50 (RPMI-8226 leukemia) was 2.57 µM and the TGI (RPMI-8226 leukemia) was 7.76 µM.
With `O=c1oc2ccc(I)cc2c(=O)n1-c1ccc(I)cc1F` the GI50 (A498 renal) was 0.166 µM, the TGI (A498 renal) was 0.546 µM and the GI50 (HCT-116 colon) was 0.472 µM. It also gave a TGI (HCT-116 colon) of 2.27 µM, a GI50 (786-0 renal) of 2.21 µM and a TGI (786-0 renal) of 6.49 µM. The GI50 (PC-3 prostate) was 2.23 µM, the TGI (PC-3 prostate) was 7.35 µM and the GI50 (CAKI-1 renal) was 0.308 µM. For the same compound, the TGI (CAKI-1 renal) was 2.53 µM, the GI50 (OVCAR-4 ovarian) was 0.349 µM and the TGI (OVCAR-4 ovarian) was 18.4 µM. The GI50 (NCI-H23 lung) was 0.476 µM, the TGI (NCI-H23 lung) was 4.39 µM and the GI50 (OVCAR-3 ovarian) was 0.44 µM. For the same compound, the TGI (OVCAR-3 ovarian) was 9.75 µM, the GI50 (SF-268 CNS) was 0.511 µM and the TGI (SF-268 CNS) was 7.64 µM. It also gave a GI50 (RPMI-8226 leukemia) of 0.366 µM and a TGI (RPMI-8226 leukemia) of 1.99 µM.
`O=C(CS(=O)c1nc2ccccc2nc1-c1ccccc1)Nc1ccc(Cl)cc1` (stereo unspecified) gave a GI50 (A498 renal) of 19 µM, a TGI (A498 renal) of 43 µM and a GI50 (HCT-116 colon) of 16 µM. For the same compound, the TGI (HCT-116 colon) was 33.1 µM, the GI50 (786-0 renal) was 26.5 µM and the TGI (786-0 renal) was 71.7 µM. The GI50 (PC-3 prostate) was 26.1 µM, the TGI (PC-3 prostate) was greater than 100 µM and the GI50 (CAKI-1 renal) was 20.1 µM. The TGI (CAKI-1 renal) was 57.5 µM, the GI50 (OVCAR-4 ovarian) was 61.2 µM and the TGI (OVCAR-4 ovarian) was greater than 100 µM. For the same compound, the GI50 (NCI-H23 lung) was 30.7 µM, the TGI (NCI-H23 lung) was greater than 100 µM and the GI50 (OVCAR-3 ovarian) was 21.5 µM. The TGI (OVCAR-3 ovarian) was 51.2 µM, the GI50 (SF-268 CNS) was 24.9 µM and the TGI (SF-268 CNS) was 88.2 µM. It also gave a GI50 (RPMI-8226 leukemia) of 20.6 µM and a TGI (RPMI-8226 leukemia) of 58.8 µM.
`CC[C@H](C)C(=O)O[C@H]1CCC=C2C=C[C@H](C)[C@H](CC[C@@H]3C[C@@H](O)CC(=O)O3)[C@H]21` was tested, and the GI50 (A498 renal) was 0.183 µM, the TGI (A498 renal) was 1.36 µM and the GI50 (HCT-116 colon) was 2.84 µM. The TGI (HCT-116 colon) was greater than 59 µM, the GI50 (786-0 renal) was 8.95 µM and the TGI (786-0 renal) was greater than 74.5 µM. It also gave a GI50 (PC-3 prostate) of 1.7 µM, a TGI (PC-3 prostate) greater than 100 µM and a GI50 (CAKI-1 renal) of 2.6 µM. It also gave a TGI (CAKI-1 renal) of 11.2 µM, a GI50 (OVCAR-4 ovarian) of 19.8 µM and a TGI (OVCAR-4 ovarian) greater than 100 µM. It also gave a GI50 (NCI-H23 lung) of 8.37 µM, a TGI (NCI-H23 lung) greater than 100 µM and a TGI (OVCAR-3 ovarian) greater than 100 µM. The GI50 (SF-268 CNS) was 2.14 µM, the TGI (SF-268 CNS) was greater than 100 µM and the GI50 (RPMI-8226 leukemia) was 13.1 µM. For the same compound, the TGI (RPMI-8226 leukemia) was greater than 75.9 µM.
In the case of `Cc1cc2oc(=O)cc(OC/C=C3/CCC(=O)O3)c2cc1C`, the GI50 (A498 renal) is reported as 2.14 µM, the TGI (A498 renal) is reported as 12 µM and the GI50 (HCT-116 colon) is reported as 2.72 µM. The GI50 (786-0 renal) was 2.57 µM, the TGI (786-0 renal) was 10.4 µM and the GI50 (PC-3 prostate) was 1.74 µM. It also gave a TGI (PC-3 prostate) of 11.4 µM, a GI50 (CAKI-1 renal) of 3.59 µM and a TGI (CAKI-1 renal) of 17.7 µM. For the same compound, the GI50 (OVCAR-4 ovarian) was 2.56 µM, the TGI (OVCAR-4 ovarian) was 13.7 µM and the GI50 (NCI-H23 lung) was 8.04 µM. It also gave a TGI (NCI-H23 lung) of 22.5 µM, a GI50 (OVCAR-3 ovarian) of 2.93 µM and a TGI (OVCAR-3 ovarian) of 11.4 µM. For the same compound, the GI50 (SF-268 CNS) was 6.46 µM, the TGI (SF-268 CNS) was 40.1 µM and the GI50 (RPMI-8226 leukemia) was 0.512 µM. The TGI (RPMI-8226 leukemia) was 4.01 µM.
`C=C1C(=O)O[C@H]2C3OC3(C)CC/C=C(/C(=O)OC)[C@@H](OC(C)=O)[C@H](OC(=O)C3(C)OC3C)[C@H]12` (stereo partly specified) was tested, and the GI50 (A498 renal) was 1.69 µM and 2.85 µg/mL, the TGI (A498 renal) was 4.26 µM and 5.4 µg/mL and the GI50 (HCT-116 colon) was 1.17 µM and 668 nM and 0.444 µg/mL. For the same compound, the TGI (HCT-116 colon) was 2.39 µM and 1.67 µM and 1.19 µg/mL, the GI50 (786-0 renal) was 1.65 µM and 362 nM and 1.26 µg/mL and the TGI (786-0 renal) was 3.73 µM and 8.4 µM and 3.45 µg/mL. The GI50 (PC-3 prostate) was 2.99 µM, the TGI (PC-3 prostate) was 5.16 µM and 11.7 µM and the GI50 (CAKI-1 renal) was 206 nM and 1.12 µM and 0.579 µg/mL. For the same compound, the TGI (CAKI-1 renal) was 478 nM and 2.35 µM and 1.57 µg/mL, the GI50 (OVCAR-4 ovarian) was 1.88 µM and 2.18 µg/mL and the TGI (OVCAR-4 ovarian) was 3.63 µM and 4.47 µg/mL. For the same compound, the GI50 (NCI-H23 lung) was 1.93 µM and 2.68 µM, the TGI (NCI-H23 lung) was 7.27 µM and 6.54 µM and the GI50 (OVCAR-3 ovarian) was 1.37 µM and 0.984 µg/mL. For the same compound, the TGI (OVCAR-3 ovarian) was 4.07 µM and 3.13 µg/mL, the GI50 (SF-268 CNS) was 2.44 µM and 3.42 µM and 4.97 µg/mL and the TGI (SF-268 CNS) was 35.7 µM and 14.9 µg/mL. For the same compound, the GI50 (RPMI-8226 leukemia) was 0.329 µg/mL and the TGI (RPMI-8226 leukemia) was 1.21 µM and 2.66 µM and 0.941 µg/mL.
Work on `Cc1cnc(-c2ccc(-c3ccc(NC(=O)Nc4cccc(C(F)(F)F)c4)cc3F)c3c2C(=O)NC3)[nH]1` yielded a GI50 (A498 renal) of 0.115 µM, a TGI (A498 renal) of 3.13 µM and a GI50 (HCT-116 colon) of 0.548 µM. The TGI (HCT-116 colon) was 23.8 µM, the GI50 (786-0 renal) was 16.8 µM and the TGI (786-0 renal) was greater than 51.8 µM. The GI50 (PC-3 prostate) was 15.7 µM, the TGI (PC-3 prostate) was greater than 50.6 µM and the GI50 (CAKI-1 renal) was 2.18 µM. The TGI (CAKI-1 renal) was greater than 44.9 µM, the GI50 (OVCAR-4 ovarian) was 8.96 µM and the TGI (OVCAR-4 ovarian) was 23.8 µM. The GI50 (NCI-H23 lung) was 4.42 µM, the TGI (NCI-H23 lung) was 33.5 µM and the GI50 (OVCAR-3 ovarian) was 14.4 µM. The TGI (OVCAR-3 ovarian) was 36.7 µM, the GI50 (SF-268 CNS) was 11.4 µM and the TGI (SF-268 CNS) was greater than 48.1 µM. The GI50 (RPMI-8226 leukemia) was 10.7 µM and the TGI (RPMI-8226 leukemia) was 52.3 µM.
With `CCc1c2c(nc3ccc(OC(=O)OCc4ccc(B5OC(C)(C)C(C)(C)O5)cc4)cc13)-c1cc3c(c(=O)n1C2)COC(=O)[C@]3(O)CC` the GI50 (A498 renal) was 0.011 µM, the TGI (A498 renal) was 0.0725 µM and the GI50 (HCT-116 colon) was less than 0.0111 µM. The TGI (HCT-116 colon) was greater than 100 µM, the GI50 (786-0 renal) was less than 0.01 µM and the TGI (786-0 renal) was 0.289 µM. For the same compound, the GI50 (PC-3 prostate) was 0.0514 µM, the TGI (PC-3 prostate) was greater than 100 µM and the GI50 (CAKI-1 renal) was less than 0.01 µM. The TGI (CAKI-1 renal) was 0.315 µM, the GI50 (OVCAR-4 ovarian) was 0.21 µM and the TGI (OVCAR-4 ovarian) was greater than 30.8 µM. For the same compound, the GI50 (NCI-H23 lung) was less than 0.0107 µM, the TGI (NCI-H23 lung) was 0.437 µM and the GI50 (OVCAR-3 ovarian) was 0.0716 µM. It also gave a TGI (OVCAR-3 ovarian) of 1.46 µM, a GI50 (SF-268 CNS) of less than 0.01 µM and a TGI (SF-268 CNS) of 1.69 µM. The GI50 (RPMI-8226 leukemia) was 0.224 µM.
`COc1ccc(C2CC(c3ccc4ccccc4c3)=NN2c2nc(O)c(C3=c4cc(Cl)ccc4=NC3=O)s2)cc1` (stereo unspecified) was tested, and the GI50 (A498 renal) was 0.0166 µM and < 0.005 µM, the TGI (A498 renal) was 0.0419 µM and < 0.005 µM and the GI50 (HCT-116 colon) was 0.0338 µM and < 0.005 µM. For the same compound, the TGI (HCT-116 colon) was 0.122 µM and 0.107 µM, the GI50 (786-0 renal) was 0.0231 µM and < 0.005 µM and the GI50 (PC-3 prostate) was 0.0283 µM and < 0.005 µM. For the same compound, the GI50 (CAKI-1 renal) was 0.036 µM and < 0.005 µM, the GI50 (OVCAR-4 ovarian) was 0.0215 µM and the TGI (OVCAR-4 ovarian) was 0.0487 µM. The GI50 (NCI-H23 lung) was 0.0226 µM and < 0.005 µM, the GI50 (OVCAR-3 ovarian) was 0.0202 µM and < 0.005 µM and the TGI (OVCAR-3 ovarian) was 0.0396 µM and < 0.005 µM. For the same compound, the GI50 (SF-268 CNS) was 0.0291 µM and < 0.005 µM and the GI50 (RPMI-8226 leukemia) was 0.0641 µM.
